Laboratory results from patent US11110195B2, “Esculentin 1a derivatives and uses thereof” (University of Houston System, priority 2013, dated 2021).
Residues, ends and D or L forms follow the SMILES beside them.

Legend:
[1] = system: A549 lung epithelial cells; assay: Wound healing assay, A549 lung epithelial cells; assay type: cell-based, human; settings: A549 monolayer
Description: The percentage of cell-covered area at each time point is reported on the y-axis. Control (Ctrl) represents cells not treated with the peptides. All data are the mean of at least three independent experiments ±SEM. […] Both peptides were able to stimulate the closure of the gap produced in the monolayer of A549 cells, with the optimal concentration allowing the almost complete coverage of the wound field equal to 10 μM (for the wild type peptide, FIG. 13A) or 4 μM (for the diastereomer, FIG. 13B) within approximately 24 hours or 20 hours, respectively.
As shown in FIGS. 13A-13B, Esc-1a(1-21)NH2 and its diastereomer both stimulated wound closure although at concentrations much higher than were required to induce a similar effect in human corneal epithelial cells. This may reflect cell specific differences.

P. aeruginosa ATCC 27853 [2] = assay: Bactericidal activity in the presence of basal human tears; assay type: cell-based, Pseudomonas aeruginosa; settings: for percentage of bacteria killed: 20 μM peptide, 90 minutes
Description: (§1) FIGS. 2A-2B show the effects of human basal tears on the bactericidal activity of Esc-1a(1-21)NH2 against P. aeruginosa ATCC 27853 (FIG. 2A) and ATCC 19660 (FIG. 2B). Bacterial cells were incubated with the peptide in the presence of different concentrations of tears collected from eighteen consenting adult volunteers with normal ocular surface and pooled. Aliquots were withdrawn for cell counting at different time intervals. Mean data (n=3), expressed as the percentage of bacteria killed by the peptide are shown. *Indicates significant difference, p<0.05.
(§2) 2×10^6 CFU/ml P. aeruginosa (ATCC 27853 or ATCC 19660) were incubated with 1-20 μM Esc-1a(1-21)NH2 in the presence of 50% or 70% v/v tears and aliquots withdrawn, plated and counted after 30, 90 and 120 minutes (n=3).

P. aeruginosa ATCC 19660 = assay: as above; assay type: cell-based, Pseudomonas aeruginosa; settings: 10 μM peptide, within 30 minutes, 70% (v/v) basal tears
Description: as §1, §2

HaCaT cells = assay: Wound healing assay, HaCaT cells; assay type: cell-based, human; settings: HaCaT monolayer
Description: The percentage of cell-covered area at each time point is reported on the y-axis. Control (Ctrl) represents cells not treated with the peptide. All data are the mean of at least three independent experiments ±SEM. […] The optimal concentration allowing gap closure was 0.25 μM.
The experimental procedure is similar to that described in Example 6 with the following two differences: (i) 40,000 cells suspended in DMEM supplemented with 4 mM glutamine and 10% FBS were seeded on each side of the ibidi culture inserts instead of 70,000 cells in KGM-2g as for corneal epithelial cells; (ii) serum-free medium was used in the wound healing assay instead of medium supplemented with 5% FBS as for corneal epithelial cells. […] Overall, the experiments indicate that Esc-1a(1-21)NH2 can stimulate wound closure in different types of mammalian cells but this is with a different kinetic or optimal concentration and thus a stereospecific mechanism involving a direct/indirect activation of different signalling transduction cascades (depending on the selected cell type) likely subtends such events.

[3] = MTT viability assay, Raw 264.7 macrophages; settings: mouse, Raw 264.7 macrophages
Description: (§3) Cell viability is expressed as percentage with respect to the control (cells not treated with the peptides). Data points represent the mean of triplicate samples ±SEM. […] The levels of statistical significance between the two peptides are indicated as follows: **p<0.01, ***p<0.001.
(§4) Cells were plated in wells of a microtiter plate, at 4×10^4 cells/well in DMEM supplemented with 2 mM glutamine and 2% FBS (for A549 cells) or DMEM containing 2 mM glutamine, non-essential amino acids (NEAA), sodium pyruvate and 2% FBS (for Raw 264.7 macrophages). After overnight incubation at 37° C. in a 5% CO2 atmosphere, the medium was replaced with 100 μl fresh serum-free medium supplemented with the peptides at different concentrations. After 24 h of peptide treatment, cell viability was determined by a MTT assay.

Raw 264.7 macrophages = assay: MTT viability assay, Raw 264.7 macrophages; settings: 128 μM, 24 h incubation
Description: as §3, §4

[4] = MTT viability assay, A549 cells; settings: human
Description: as §3, §4

P. aeruginosa ATCC 27853 [5] = settings: soluble free form, 1 μM, within 20 minutes in PBS
in vitro = settings: for Peptide Amount (%): 24 h, 37° C.; for remaining at 5 h, 0.575 mM / remaining at 24 h, 0.575 mM: human
Description: A total of 125 μl of a 0.92 mM solution of each peptide was incubated at 37° C. with 20 μl and 60 μl human serum. Samples were collected after 5 h and 24 h of incubation, precipitated with 200 μl methanol, and centrifuged for 2 min at 10,000 g.
The crude solution was then analyzed by high-performance liquid chromatography (HPLC) and mass spectrometry. HPLC was performed with a Vydac C18 column, and the crude solution was diluted 5 times with 0.1% trifluoroacetic acid before injection and monitored at 280 nm.

For CC[C@H](C)[C@H](NC(=O)CN)C(=O)N[C@@H](Cc1ccccc1)C(=O)N[C@@H](CO)C(=O)N[C@@H](CCCCN)C(=O)N[C@@H](CC(C)C)C(=O)N[C@@H](C)C(=O)NCC(=O)N[C@@H](CCCCN)C(=O)N[C@@H](CCCCN)C(=O)N[C@H](C(=O)N[C@@H](CCCCN)C(=O)N[C@@H](CC(N)=O)C(=O)N[C@@H](CC(C)C)C(=O)N[C@@H](CC(C)C)C(=O)N[C@H](C(=O)N[C@@H](CO)C(=O)NCC(=O)N[C@@H](CC(C)C)C(=O)N[C@@H](CCCCN)C(=O)NCC(N)=O)[C@@H](C)CC)[C@@H](C)CC [Esc-1a(1-21)NH2] (H-GIFSKLAGKKIKNLLISGLKG-NH2; N-terminus assumed), the “optimal concentration allowing almost complete coverage of the wound field” value [1] was 10 µM, the “time to almost complete coverage of the wound field” value ([1]; at optimal concentration) was “approximately 24 hours” and the “percentage of bacteria killed” value (P. aeruginosa ATCC 27853 [2]; 50% v/v basal tears) was 100%. The “percentage of bacteria killed” value (P. aeruginosa ATCC 27853 [2]; 70% v/v basal tears) was 70%, the “retention of activity in basal tears” value (P. aeruginosa ATCC 27853 [2]; 1-20 μM peptide, 50% or 70% v/v basal tears) was “the majority of Esc-1a(1-21)NH2 activity was retained” and the killing of bacteria (P. aeruginosa ATCC 19660) was “complete killing”. For the same compound, the “optimal concentration allowing gap closure” value (HaCaT cells) was 0.25 µM, the “time to coverage of the wound-field” value (HaCaT cells; bell-shaped dose-response) was 9 to 12 h and the CC50 at 24 h [3] was 64 µM. The killing (Raw 264.7 macrophages) was 100%, the CC50 at 24 h [4] was 150 µM and the killing (P. aeruginosa ATCC 27853 [5]) was ~99.9%. For the same compound, the “Peptide Amount (%)” value (in vitro; 10% human fresh serum) was “approximately 22.19%”, the “Peptide Amount (%)” value (in vitro; 30% human fresh serum) was ~11.5% and the remaining at 5 h, 0.575 mM (in vitro; 10% human fresh serum) was 44.4%. For the same compound, the remaining at 24 h, 0.575 mM (in vitro; 10% human fresh serum) was 22.2%, the remaining at 5 h, 0.575 mM (in vitro; 30% human fresh serum) was 20.9% and the remaining at 24 h, 0.575 mM (in vitro; 30% human fresh serum) was 11.5%.
